Like-named read-outs stand apart in the source and are kept apart here.
Experiments:
[1] = molecular target: EGFR del19/T790M/C797S (Homo sapiens, UniProt P00533, C797S/DEL746-750/T790M); assay: Biochemical EGFR kinase assay (Lance Ultra TR-FRET), triple mutant del19/T790M/C797S
In short: (§1)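 Step 1: compound in kinase buffer, 0.003–10 μM. Step 2: kinase reaction 1 h at room temperature. Step 4: TR-FRET read at 615/665 nm; IC50 calculated.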

[2] = molecular target: EGFR L858R/T790M/C797S (Homo sapiens, UniProt P00533, C797S/L858R/T790M); assay: Biochemical EGFR kinase assay (Lance Ultra TR-FRET), triple mutant L858R/T790M/C797S
In short: as §1

[3] = molecular target: EGFR del19/C797S (Homo sapiens, UniProt P00533, C797S/DEL746-750); assay: Biochemical EGFR kinase assay (Lance Ultra TR-FRET), double mutant del19/C797S
EGFR del19/C797S, sequence (P00533 with tags, fused parts or gaps DEL746-750/C797S): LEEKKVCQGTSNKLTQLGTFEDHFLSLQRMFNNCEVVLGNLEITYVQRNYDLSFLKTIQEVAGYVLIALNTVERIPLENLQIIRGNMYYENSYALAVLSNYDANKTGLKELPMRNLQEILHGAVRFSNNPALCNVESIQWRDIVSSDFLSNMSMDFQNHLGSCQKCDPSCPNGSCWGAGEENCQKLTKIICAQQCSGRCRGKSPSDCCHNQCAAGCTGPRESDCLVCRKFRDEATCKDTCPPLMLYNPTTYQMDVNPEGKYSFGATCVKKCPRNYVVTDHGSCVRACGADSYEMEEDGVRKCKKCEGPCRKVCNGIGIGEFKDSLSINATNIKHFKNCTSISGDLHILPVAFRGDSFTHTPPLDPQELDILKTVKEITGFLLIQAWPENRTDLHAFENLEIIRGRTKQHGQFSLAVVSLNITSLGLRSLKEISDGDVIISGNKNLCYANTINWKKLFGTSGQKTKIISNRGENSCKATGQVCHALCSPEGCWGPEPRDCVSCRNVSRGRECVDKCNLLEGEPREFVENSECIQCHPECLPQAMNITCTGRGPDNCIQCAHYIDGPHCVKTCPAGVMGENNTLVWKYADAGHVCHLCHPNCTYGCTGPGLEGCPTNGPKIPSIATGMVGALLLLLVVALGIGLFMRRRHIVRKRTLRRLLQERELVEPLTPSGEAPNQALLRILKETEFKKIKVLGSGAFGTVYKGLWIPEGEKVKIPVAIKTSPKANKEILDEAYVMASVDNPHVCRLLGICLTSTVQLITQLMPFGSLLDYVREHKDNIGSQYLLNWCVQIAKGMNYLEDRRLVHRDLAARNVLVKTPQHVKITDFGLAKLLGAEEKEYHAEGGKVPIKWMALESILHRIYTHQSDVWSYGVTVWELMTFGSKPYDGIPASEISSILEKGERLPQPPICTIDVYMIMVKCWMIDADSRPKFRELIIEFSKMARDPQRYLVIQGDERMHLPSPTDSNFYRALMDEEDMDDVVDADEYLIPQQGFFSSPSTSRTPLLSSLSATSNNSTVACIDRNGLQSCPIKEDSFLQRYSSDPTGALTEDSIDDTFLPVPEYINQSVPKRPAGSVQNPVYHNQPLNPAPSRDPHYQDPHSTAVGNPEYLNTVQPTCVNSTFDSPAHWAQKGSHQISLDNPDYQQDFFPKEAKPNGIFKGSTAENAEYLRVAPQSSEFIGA
In short: as §1

[4] = molecular target: EGFR L858R/C797S (Homo sapiens, UniProt P00533, C797S/L858R); assay: Biochemical EGFR kinase assay (Lance Ultra TR-FRET), double mutant L858R/C797S
EGFR L858R/C797S, sequence (P00533 25-1210 C797S/L858R): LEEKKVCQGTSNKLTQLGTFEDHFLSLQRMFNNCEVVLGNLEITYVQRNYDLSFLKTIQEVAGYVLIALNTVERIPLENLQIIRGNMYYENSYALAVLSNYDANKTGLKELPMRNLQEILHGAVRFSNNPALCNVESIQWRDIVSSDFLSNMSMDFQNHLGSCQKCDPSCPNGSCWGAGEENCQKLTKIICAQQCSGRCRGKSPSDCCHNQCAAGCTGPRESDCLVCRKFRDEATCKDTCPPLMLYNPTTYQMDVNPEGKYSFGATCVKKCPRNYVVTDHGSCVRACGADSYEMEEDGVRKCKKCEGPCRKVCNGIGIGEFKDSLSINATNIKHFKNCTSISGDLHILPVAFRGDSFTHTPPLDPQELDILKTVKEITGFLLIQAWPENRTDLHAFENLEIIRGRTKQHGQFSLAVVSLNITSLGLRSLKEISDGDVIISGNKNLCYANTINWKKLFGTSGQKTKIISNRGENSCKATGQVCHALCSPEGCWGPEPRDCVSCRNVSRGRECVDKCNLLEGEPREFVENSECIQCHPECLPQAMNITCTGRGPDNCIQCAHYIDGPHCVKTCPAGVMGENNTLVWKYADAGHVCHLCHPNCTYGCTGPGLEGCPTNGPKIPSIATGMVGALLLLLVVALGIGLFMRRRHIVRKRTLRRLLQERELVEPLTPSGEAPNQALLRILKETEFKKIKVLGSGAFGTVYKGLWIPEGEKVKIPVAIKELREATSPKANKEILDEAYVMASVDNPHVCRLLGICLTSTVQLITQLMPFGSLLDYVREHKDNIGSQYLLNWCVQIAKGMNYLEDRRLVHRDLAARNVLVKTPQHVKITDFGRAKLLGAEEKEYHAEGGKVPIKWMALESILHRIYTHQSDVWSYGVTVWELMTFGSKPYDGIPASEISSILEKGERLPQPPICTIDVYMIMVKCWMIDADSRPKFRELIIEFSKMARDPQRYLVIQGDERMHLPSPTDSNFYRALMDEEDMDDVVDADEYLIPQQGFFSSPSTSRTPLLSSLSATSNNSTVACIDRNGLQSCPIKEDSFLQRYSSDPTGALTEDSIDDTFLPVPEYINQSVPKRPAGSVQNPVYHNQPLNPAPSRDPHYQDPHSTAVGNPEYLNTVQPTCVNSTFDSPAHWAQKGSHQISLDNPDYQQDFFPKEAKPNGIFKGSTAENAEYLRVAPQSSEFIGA
In short: as §1

[5] = molecular target: EGFR wildtype (Homo sapiens, UniProt P00533); assay: Biochemical EGFR kinase assay (Lance Ultra TR-FRET), wildtype
EGFR wildtype, sequence (P00533 25-1210): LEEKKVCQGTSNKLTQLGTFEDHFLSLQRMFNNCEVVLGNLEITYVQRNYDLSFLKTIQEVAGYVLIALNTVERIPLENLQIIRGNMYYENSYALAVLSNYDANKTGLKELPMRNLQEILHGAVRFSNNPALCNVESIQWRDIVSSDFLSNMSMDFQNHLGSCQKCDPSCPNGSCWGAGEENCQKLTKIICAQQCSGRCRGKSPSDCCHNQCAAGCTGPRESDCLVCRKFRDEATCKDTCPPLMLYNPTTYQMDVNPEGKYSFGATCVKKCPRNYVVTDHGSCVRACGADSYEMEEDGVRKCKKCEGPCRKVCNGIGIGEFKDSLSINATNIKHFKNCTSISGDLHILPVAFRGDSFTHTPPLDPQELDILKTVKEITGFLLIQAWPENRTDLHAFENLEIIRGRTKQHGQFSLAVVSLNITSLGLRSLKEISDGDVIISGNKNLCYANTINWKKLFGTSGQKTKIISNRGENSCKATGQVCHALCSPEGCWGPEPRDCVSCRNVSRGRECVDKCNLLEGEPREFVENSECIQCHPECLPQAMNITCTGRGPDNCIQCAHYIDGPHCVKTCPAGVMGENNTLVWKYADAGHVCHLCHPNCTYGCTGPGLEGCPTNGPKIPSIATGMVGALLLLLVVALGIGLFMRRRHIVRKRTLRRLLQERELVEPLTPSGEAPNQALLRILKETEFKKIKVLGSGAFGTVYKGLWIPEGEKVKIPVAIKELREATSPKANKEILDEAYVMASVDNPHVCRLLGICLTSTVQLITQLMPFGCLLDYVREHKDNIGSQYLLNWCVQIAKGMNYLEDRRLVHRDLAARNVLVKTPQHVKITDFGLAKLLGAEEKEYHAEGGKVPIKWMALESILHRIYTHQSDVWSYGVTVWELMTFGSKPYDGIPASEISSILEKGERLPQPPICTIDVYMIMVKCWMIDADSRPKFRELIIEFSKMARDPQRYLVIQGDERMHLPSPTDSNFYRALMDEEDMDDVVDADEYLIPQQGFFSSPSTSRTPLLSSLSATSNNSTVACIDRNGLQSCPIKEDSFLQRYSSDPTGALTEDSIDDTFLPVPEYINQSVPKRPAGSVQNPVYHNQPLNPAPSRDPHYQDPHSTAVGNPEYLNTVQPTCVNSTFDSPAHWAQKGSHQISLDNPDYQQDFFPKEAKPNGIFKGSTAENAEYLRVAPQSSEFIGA
In short: as §1

[6] = ATP at Km, read-out: IC50 del19/T790M/C797S, Km ATP
[7] = ATP at Km, read-out: IC50 L858R/T790M/C797S, Km ATP
[8] = IC50 L858R/T790M/C797S, 100 μM ATP
[9] = ATP at Km, read-out: IC50 del19/C797S, Km ATP
[10] = ATP at Km, read-out: IC50 L858R/C797S, Km ATP
[11] = ATP at Km, read-out: IC50 WT, Km ATP
[12] = IC50 del19/T790M/C797S, 100 μM ATP
[13] = IC50 del19/T790M/C797S (nM) 100 μM ATP, 100 μM ATP
[14] = Km ATP, read-out: IC50 del19/T790M/C797S (nM) Km ATP
[15] = IC50 L858R/T790M/C797S (nM) 100 μM ATP, 100 μM ATP
[16] = Km ATP, read-out: IC50 L858R/T790M/C797S (nM) Km ATP
[17] = IC50 del19/C797S (nM) 100 μM ATP, 100 μM ATP
[18] = IC50 L858R/C797S (nM) 100 μM ATP, 100 μM ATP
[19] = Km ATP, read-out: IC50 L858R/C797S (nM) Km ATP
[20] = IC50 WT (nM) 100 μM ATP, 100 μM ATP
[21] = Km ATP, read-out: IC50 WT (nM) Km ATP
[22] = Km ATP, read-out: IC50 del19/C797S (nM) Km ATP

EGFR del19/T790M/C797S, sequence (P00533 with tags, fused parts or gaps DEL746-750/T790M/C797S): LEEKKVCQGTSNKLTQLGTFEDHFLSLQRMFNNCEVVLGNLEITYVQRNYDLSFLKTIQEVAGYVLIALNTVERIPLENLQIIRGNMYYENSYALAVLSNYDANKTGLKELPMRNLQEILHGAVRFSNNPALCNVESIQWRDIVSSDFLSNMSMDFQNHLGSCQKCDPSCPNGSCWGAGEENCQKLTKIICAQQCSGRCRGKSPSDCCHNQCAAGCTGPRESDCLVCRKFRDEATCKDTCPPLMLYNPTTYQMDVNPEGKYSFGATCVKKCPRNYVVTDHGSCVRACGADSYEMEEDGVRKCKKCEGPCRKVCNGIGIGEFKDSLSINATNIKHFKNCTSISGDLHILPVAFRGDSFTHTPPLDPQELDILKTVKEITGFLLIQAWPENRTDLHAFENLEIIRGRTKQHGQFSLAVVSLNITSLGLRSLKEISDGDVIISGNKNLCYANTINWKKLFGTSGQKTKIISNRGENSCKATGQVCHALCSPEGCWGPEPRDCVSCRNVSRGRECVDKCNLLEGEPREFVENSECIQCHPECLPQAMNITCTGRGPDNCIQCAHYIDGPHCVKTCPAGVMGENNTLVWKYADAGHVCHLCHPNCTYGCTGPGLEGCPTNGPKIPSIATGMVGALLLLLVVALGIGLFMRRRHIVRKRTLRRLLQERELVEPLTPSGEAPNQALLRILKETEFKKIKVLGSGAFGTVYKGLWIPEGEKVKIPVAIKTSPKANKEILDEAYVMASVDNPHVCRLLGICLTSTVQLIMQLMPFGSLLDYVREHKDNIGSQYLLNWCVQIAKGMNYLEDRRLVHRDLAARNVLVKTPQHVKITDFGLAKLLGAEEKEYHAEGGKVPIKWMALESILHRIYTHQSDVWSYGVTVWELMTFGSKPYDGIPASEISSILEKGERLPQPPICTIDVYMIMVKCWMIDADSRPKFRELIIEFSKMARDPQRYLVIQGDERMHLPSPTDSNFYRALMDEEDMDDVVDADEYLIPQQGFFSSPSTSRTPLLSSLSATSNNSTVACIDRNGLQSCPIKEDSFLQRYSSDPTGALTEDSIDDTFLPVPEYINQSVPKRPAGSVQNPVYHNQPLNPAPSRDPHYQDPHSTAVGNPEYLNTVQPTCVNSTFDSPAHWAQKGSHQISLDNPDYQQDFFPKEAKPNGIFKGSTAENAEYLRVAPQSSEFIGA

SMILES | IC50 [1, 6] [nM] | IC50 [2, 7] [nM] | IC50 [2, 8] [nM] | IC50 [3, 9] [nM] | IC50 ([3]; IC50 del19/C797S, 100 μM ATP) [nM] | IC50 [4, 10] [nM] | IC50 ([4]; IC50 L858R/C797S, 100 μM ATP) [nM] | IC50 [5, 11] [nM] | IC50 ([5]; IC50 WT, 100 μM ATP) [nM] | IC50 [1, 12] [nM] | IC50 [1, 13] [nM] | IC50 [1, 14] [nM] | IC50 [2, 15] [nM] | IC50 [2, 16] [nM] | IC50 [3, 17] [nM] | IC50 [4, 18] [nM] | IC50 [4, 19] [nM] | IC50 [5, 20] [nM] | IC50 [5, 21] [nM] | IC50 [3, 22] [nM]
CC1(O)CCC(Nc2cc(Nc3ccnc(-c4cnn(S(=O)(=O)C5CC5)c4)n3)ncc2-c2ccc(C(C)(O)C(F)(F)F)cn2)CC1 (stereo not shown) [Example 230, (1s,4s)-4-((6′-((2-(1-(Cyclopropylsulfonyl)-1H-pyrazol-4-yl)pyrimidin-4-yl)amino)-5-(1,1,1-trifluoro-2-hydroxypropan-2-yl)-[2,3′-bipyridin]-4′-yl)amino)-1-methylcyclohexan-1-ol] | 1.1 | 0.4 | 0.6 | 1.7 | 6 | 2.4 | 7.8 | 5 | 1660 |  |  |  |  |  |  |  |  |  |  | 
C[C@]1(O)CC[C@@H](Nc2cc(Nc3ccnc(-c4cnn(S(=O)(=O)C5CC5)c4)n3)ncc2-c2ccc(OCCN3CCC3)cn2)CC1 [Example 290, (1s,4s)-4-((5-(2-(Azetidin-1-yl)ethoxy)-6′-((2-(1-(cyclopropylsulfonyl)-1H-pyrazol-4-yl)pyrimidin-4-yl)amino)-[2,3′-bipyridin]-4′-yl)amino)-1-methylcyclohexan-1-ol] | 0.4 | 0.1 | 0.2 | 0.2 | 0.3 | 0.1 | 0.6 | 0.5 | 118 | 0.4 |  |  |  |  |  |  |  |  |  | 
CC(C)(F)c1ccc(-c2cnc(Nc3ccnc(-c4cnn(S(=O)(=O)C5CC5)c4)n3)cc2NC2CCC(F)CC2)nc1 (stereo not shown) [Example 239, N^6′-(2-(1-(Cyclopropylsulfonyl)-1H-pyrazol-4-yl)pyrimidin-4-yl)-N^4′-(4-fluorocyclohexyl)-5-(2-fluoropropan-2-yl)-[2,3′-bipyridine]-4′,6′-diamine] | 15.1 | 3.9 |  | 72.7 |  | 31.6 |  | 216 |  |  |  |  |  |  |  |  |  |  |  | 
CN1CCC(Oc2ccc(-c3cnc(Nc4ccnc(-c5cnn(CC(F)F)c5)n4)cc3NC3CCC(F)(F)C3)nc2)CC1 (stereo not shown) [Example 138, N^4′-(3,3-Difluorocyclopentyl)-N^6′-(2-(1-(2,2-difluoroethyl)-1H-pyrazol-4-yl)pyrimidin-4-yl)-5-((1-methylpiperidin-4-yl)oxy)-[2,3′-bipyridine]-4′,6′-diamine] |  |  |  |  |  |  |  |  |  |  |  | 0.1 |  | 0.2 |  |  | 1.6 |  | 32 | 4.9
C[C@]1(O)CC[C@@H](Nc2cc(Nc3ccnc(-c4cnn(S(=O)(=O)C5CC5)c4)n3)ncc2-c2ccc(N3CCCCC3)cn2)CC1 [Example 54, (1s,4s)-4-((6′-((2-(1-(Cyclopropylsulfonyl)-1H-pyrazol-4-yl)pyrimidin-4-yl)amino)-5-(piperidin-1-yl)-[2,3′-bipyridin]-4′-yl)amino)-1-methylcyclohexan-1-ol] |  |  |  |  |  |  |  |  |  |  | 11.4 | 12.5 | 5.1 |  | 9.7 | 7.3 | 1.4 | 5840 | 9.2 | 5.6
CC(C)(O)[C@H]1CC[C@@H](Nc2cc(Nc3ccnc(-c4cnn(S(=O)(=O)C5CC5)c4)n3)ncc2-c2cc(N3CCC(F)(F)CC3)ccn2)CC1 [Example 103, 2-((1s,4s)-4-((6′-((2-(1-(Cyclopropylsulfonyl)-1H-pyrazol-4-yl)pyrimidin-4-yl)amino)-4-(4,4-difluoropiperidin-1-yl)-[2,3′-bipyridin]-4′-yl)amino)cyclohexyl)propan-2-ol] |  |  |  |  |  |  |  |  |  |  | 6.6 |  | 3.9 |  | 66.5 | 654 |  | > 10000 |  | 
CC(C)(O)[C@H]1CC[C@@H](Nc2cc(Nc3ccnc(-c4cnn(S(=O)(=O)C5CC5)c4)n3)ncc2-c2cccc(F)n2)CC1 [Example 163, 2-((1s,4s)-4-((6′-((2-(1-(Cyclopropylsulfonyl)-1H-pyrazol-4-yl)pyrimidin-4-yl)amino)-6-fluoro-[2,3′-bipyridin]-4′-yl)amino)cyclohexyl)propan-2-ol] |  | 0.7 | 2.3 | 2.6 | 3.1 | 13 | 49.4 | 18.7 | > 10000 | 2.6 |  |  |  |  |  |  |  |  |  | 

Further lines, results first:

IC50 [1, 6] [nM] | IC50 [2, 7] [nM] | IC50 [2, 8] [nM] | IC50 [3, 9] [nM] | IC50 ([3]; IC50 del19/C797S, 100 μM ATP) [nM] | IC50 [4, 10] [nM] | IC50 ([4]; IC50 L858R/C797S, 100 μM ATP) [nM] | IC50 [5, 11] [nM] | IC50 ([5]; IC50 WT, 100 μM ATP) [nM] | IC50 [1, 12] [nM] | IC50 [1, 13] [nM] | IC50 [1, 14] [nM] | IC50 [2, 15] [nM] | IC50 [2, 16] [nM] | IC50 [3, 17] [nM] | IC50 [4, 18] [nM] | IC50 [4, 19] [nM] | IC50 [5, 20] [nM] | IC50 [5, 21] [nM] | IC50 [3, 22] [nM] | SMILES
 |  | 0.4 |  | 0.4 |  | 2.4 |  | 541 | 0.3 |  |  |  |  |  |  |  |  |  |  | CS(=O)(=O)c1ccc(-c2cnc(Nc3ccnc(-c4cnn(S(=O)(=O)C5CC5)c4)n3)cc2N[C@H]2CC[C@@H](CO)CC2)nc1 [Example 158, ((1s,4s)-4-((6′-((2-(1-(Cyclopropylsulfonyl)-1H-pyrazol-4-yl)pyrimidin-4-yl)amino)-5-(methylsulfonyl)-[2,3′-bipyridin]-4′-yl)amino)cyclohexyl)methanol]
 |  | 3.8 |  | 23.5 |  | 187 |  | > 10000 | 3 |  |  |  |  |  |  |  |  |  |  | CC(C)(O)[C@H]1CC[C@@H](Nc2nccc(-c3cnc(Nc4ccnc(-c5cnn(S(=O)(=O)C6CC6)c5)n4)cc3N[C@H]3CC[C@@H](C(C)(C)O)CC3)n2)CC1 [Example 193, 2-((1s,4s)-4-((4-(6-((2-(1-(Cyclopropylsulfonyl)-1H-pyrazol-4-yl)pyrimidin-4-yl)amino)-4-(((1s,4s)-4-(2-hydroxypropan-2-yl)cyclohexyl)amino)pyridin-3-yl)pyrimidin-2-yl)amino)cyclohexyl)propan-2-ol]
 |  |  |  |  |  |  |  |  |  | 8.6 | 6.2 | 4.1 | 2.6 | 11.2 | 9.6 | 4.1 | 3710 | 37.8 |  | CC(C)(O)c1cc(-c2cnc(Nc3ccnc(-c4cnn(S(=O)(=O)C5CC5)c4)n3)cc2N[C@H]2CC[C@@H](C(C)(C)O)CC2)ncc1F [Example 106, 2-(6′-((2-(1-(Cyclopropylsulfonyl)-1H-pyrazol-4-yl)pyrimidin-4-yl)amino)-5-fluoro-4′-(((1s,4s)-4-(2-hydroxypropan-2-yl)cyclohexyl)amino)-[2,3′-bipyridin]-4-yl)propan-2-ol]
 |  | 0.2 |  | 0.6 |  | 2.1 |  | 6340 | 0.2 |  |  |  |  |  |  |  |  |  |  | C[C@]1(O)CC[C@@H](Nc2cc(Nc3ccnc(-c4cnn(S(=O)(=O)C5CC5)c4)n3)ncc2-c2cc(NCCN3CC(F)C3)ccn2)CC1 [Example 281, (1s,4s)-4-((6′-((2-(1-(Cyclopropylsulfonyl)-1H-pyrazol-4-yl)pyrimidin-4-yl)amino)-4-((2-(3-fluoroazetidin-1-yl)ethyl)amino)-[2,3′-bipyridin]-4′-yl)amino)-1-methylcyclohexan-1-ol]
 |  |  |  |  |  |  |  |  |  | 5.7 | 4.5 | 3.6 | 2 | 23.2 | 6.9 | 6.8 | > 10000 | 11.7 | 5.1 | C[C@]1(O)CC[C@@H](Nc2cc(Nc3ccnc(-c4cnn(S(=O)(=O)C5CC5)c4)n3)ncc2-c2cc(CN3CCC(F)(F)CC3)ccn2)CC1 [Example 112, (1s,4s)-4-((6′-((2-(1-(Cyclopropylsulfonyl)-1H-pyrazol-4-yl)pyrimidin-4-yl)amino)-4-((4,4-difluoropiperidin-1-yl)methyl)-[2,3′-bipyridin]-4′-yl)amino)-1-methylcyclohexan-1-ol]
 |  |  |  |  |  |  |  |  |  |  | 3.9 |  | 1.7 |  |  | 239 |  | > 10000 | 281 | CC(C)(O)[C@H]1CC[C@@H](Nc2cc(Nc3ccnc(-c4cnn(S(=O)(=O)C5CC5)c4)n3)ncc2-c2cnc(OC(F)F)cn2)CC1 [Example 130, 2-((1s,4s)-4-((2-((2-(1-(Cyclopropylsulfonyl)-1H-pyrazol-4-yl)pyrimidin-4-yl)amino)-5-(5-(difluoromethoxy)pyrazin-2-yl)pyridin-4-yl)amino)cyclohexyl)propan-2-ol]
 |  |  |  |  |  |  |  |  |  | 0.1 | 0.1 | 0.3 | 0.1 | 0.2 | 0.9 | 0.2 | 1170 | 2.4 |  | CN(C)Cc1ccnc(-c2cnc(Nc3ccnc(-c4cnn(S(=O)(=O)C5CC5)c4)n3)cc2N[C@H]2CC[C@@](C)(O)CC2)c1 [Example 64, (1s,4s)-4-((6′-((2-(1-(Cyclopropylsulfonyl)-1H-pyrazol-4-yl)pyrimidin-4-yl)amino)-4-((dimethylamino)methyl)-[2,3′-bipyridin]-4′-yl)amino)-1-methylcyclohexan-1-ol]
